{"source": "patent US11389449B2", "about": "“Treatment of metabolic syndrome with an sGC stimulator” (Cyclerion Therapeutics, Inc., priority 2017, dated 2022)", "test_system": "patients with stable type 2 diabetes and hypertension", "assay": "Randomized placebo-controlled Phase 2a study of 2 dose regimens (NCT03091920), metabolic assessments", "type": "in vivo, human", "details": "for Apolipoprotein B Change LS Mean / Apolipoprotein B LS Mean Diff (placebo adjusted): serum; for serum triglycerides LS Mean Diff (placebo adjusted) / serum triglycerides LS Mean reduction from baseline: Day 15", "method": "The serum ApoB level was determined using microsphere-based HSP-ApoB assay, consisting of using antigen-specific antibodies optimized in a capture-sandwich format. 5 μL of a diluted mixture of capture-antibody microspheres were mixed with 5 μL bloker and 10 μL standard, pre-diluted sample, or control in a hard-bottom microtiter plate. Plama and serum samples were diluted of the appropriate dilution. The plate was incubated for 1 hour at room temperature. 10 μL biotinylated detection antibody was added to each well, thoroughly-mixed and incubated for 1 hour. 10 μL diluted Streptavidin-phycoerythrin was added to each well, thoroughly mixed, and incubated for 60 minutes. A filter-membrane microtiter plate was pre-wetted by adding 100 μL wash buffer followed by aspiration via a vaccum manifoled device. The reaction contents of the hard-bottom plate were then transferred to the respective wells of the filter plate. All wells were vacuum aspirated and the contents were washed twice with 100 μL wash buffer. After the last wash, 100 μL wash buffer was added to each well, and the washed microspheres were resuspended with thorough mixing. The plate was then analyzed on the Luminex platform.\nPlasma ADMA concentrations were determined by liquid chromatography and tandem mass spectrometry (LC-MS/MS). Plasma samples of the patients were collected in a purple-top container with K2 EDTA anticoagulant. The tube was filled completely and the sample was mixed well and separated by centrifugation. A minium volume of 0.20 mL was needed for testing and the plasma sample was extracted by a simple protein precipation. The supernatant was then transferred to a diluent before analysis. The extract was analyzed using liquid chromatography (LC) with tandem mass spectrometry (MS/MS). The standard curve was 10.0 ng/mL to 1000.0 ng/mL.\nThe primary objectives of this clinical study (ClinicalTrials.gov Identifier: NCT03091920) were to compare the safety, tolerability, PK profile, and PD effects of 2 treatment regimens of Compound I tablet (40 mg per day, as 20 mg BID or as 40 mg QD) administered orally for 2 weeks to patients with stable type 2 diabetes mellitus and hypertension. Patients in this trial were on stable medications for glucose control (blood glucose lowering medication, antihyperglycemics) and hypertension (antihypertensives). Secondary measurements included assessment of fasting glucose levels, fasting insulin levels, hemoglobin A1C (HbA1C) levels, serum cholesterol levels, ApoB levels, HOMA-IR, ADMA concentrations, serum triglyceride levels, BMI, liver transaminases and body weight, among others.\nAllocation: Randomized; Intervention Model: Parallel Assignment; Masking: Triple (Participant, Care Provider, Investigator); Masking Description: Double-Blind; Primary Purpose: Treatment\nThis is a randomized, double-blind, placebo-controlled study consisting of 3 distinct periods (see FIG. 30).\n13 male patients and 13 female patientes with stable type 2 diabetes and hypertension were enrolled. Patients were randomized in a 5:5:3 ratio (QD:BID:Placebo) to receive 1 of 2 Compound I treatment regimens or placebo (all regimens were masked) as outlined in the table above.\nClinic Period: The Clinic Period began at Check-in on Day-2 (2 days before dosing) and ended at the time of Discharge on Day 15. During the 17-day Clinic Period, patients were confined to the Study Center and received a standard diet for diabetics. Patients who met eligibility criteria based on Screening Visit assessments were admitted to the Study Center on Day-2 for baseline procedures. On the morning of Day 1 (there is no Day 0), eligible patients were randomized in a 5:5:3 ratio to 1 of 3 masked treatment regimens: QD/QD, BID/QD, or PBO/PBO. On Days 1 to 14, patients received a morning (AM) dose and an evening (PM) dose.\nCompound I was administered as multiples of a 5 mg oral tablet dosage form. Placebo was administered as multiples of a 5 mg tablet. […]", "key": {"[1]": {"details": "40 mg, regimens combined, 14 days"}, "[2]": {"details": "subgroup of 18 patients on concomitant statin therapy, regimens combined, 14 days"}}, "note": "Entries after “also recorded” stand apart in the source; their conditions may differ."}
{"smiles": "OC(CNc1nc(-c2cc(-c3ccon3)n(Cc3ccccc3F)n2)ncc1F)(C(F)(F)F)C(F)(F)F", "note": "[Compound I]", "values": [{"measurement": "HDL cholesterol levels", "setting": "40 mg total daily dose, over the trial", "value": "remained unchanged; also recorded: remained closed to baseline; also recorded: no changes"}, {"measurement": "mean serum ALT decrease from baseline", "setting": "[1]", "value": 4.9, "unit": "IU/L"}, {"measurement": "mean serum AST decrease from baseline", "setting": "[1]", "value": 4.5, "unit": "IU/L"}, {"measurement": "mean serum GGT decrease from baseline", "setting": "[1]", "value": 2.4, "unit": "U/L"}, {"measurement": "Mean Apo-B levels decline in treated patients", "setting": "14 days", "value": "approximately 17%"}, {"measurement": "HbA1C levels over placebo", "setting": "14 days of treatment", "value": "No meaningful improvements"}, {"measurement": "plasma fasting glucose LS Mean reduction from baseline", "setting": "BID/QD (20 mg BID days 1-7; 40 mg QD days 8 to 14), day 15", "value": -35.3, "unit": "mg/dL"}, {"measurement": "Apolipoprotein B Change LS Mean", "setting": "BID/QD (N = 10), day 15", "value": -219.4, "unit": "µg/mL"}, {"measurement": "serum triglycerides LS Mean Diff (placebo adjusted)", "setting": "BID/QD", "value": -14.3, "unit": "mg/dL"}, {"measurement": "serum triglycerides LS Mean reduction from baseline", "setting": "BID/QD", "value": -46.4, "unit": "mg/dL"}, {"measurement": "LDL cholesterol Mean Diff (SE), placebo adjusted", "setting": "BID/QD, day 15", "value": "−20.2 (9.2) mg/dL"}, {"measurement": "LDL cholesterol Mean reduction from baseline (SE), least square", "setting": "BID/QD, day 15", "value": "−14.0 (5.6) mg/dL"}, {"measurement": "plasma fasting glucose LS Mean Diff (placebo adjusted)", "setting": "BID/QD, day 15", "value": -15.6, "unit": "mg/dL"}, {"measurement": "serum cholesterol LS Mean Diff (placebo adjusted)", "setting": "BID/QD, day 15", "value": -20.9, "unit": "mg/dL"}, {"measurement": "serum cholesterol LS Mean reduction from baseline", "setting": "BID/QD, day 15", "value": -20.2, "unit": "mg/dL"}, {"measurement": "serum LDL cholesterol reduced when compared to placebo", "setting": "BID/QD, day 15, after 14 days of treatment", "value": "about 20 mg/dL"}, {"measurement": "serum LDL cholesterol reduced when compared to placebo", "setting": "BID/QD, day 15, % of total cholesterol", "value": 13, "unit": "%"}, {"measurement": "Apolipoprotein B LS Mean Diff (placebo adjusted)", "setting": "BID/QD, day 15", "value": -168.9, "unit": "µg/mL"}, {"measurement": "plasma fasting glucose LS Mean reduction from baseline", "setting": "Combined group (BID/QD and QD/QD), day 15", "value": -32.5, "unit": "mg/dL"}, {"measurement": "serum triglycerides LS Mean Diff (placebo adjusted)", "setting": "Combined group", "value": -14.2, "unit": "mg/dL"}, {"measurement": "serum triglycerides LS Mean reduction from baseline", "setting": "Combined group", "value": -46.2, "unit": "mg/dL"}, {"measurement": "LDL cholesterol Mean Diff (SE), placebo adjusted", "setting": "Combined group, day 15", "value": "−20.2 (8.3) mg/dL"}, {"measurement": "LDL cholesterol Mean reduction from baseline (SE), least square", "setting": "Combined group, day 15", "value": "−13.9 (4.0) mg/dL"}, {"measurement": "plasma fasting glucose LS Mean Diff (placebo adjusted)", "setting": "Combined group, day 15", "value": -12.8, "unit": "mg/dL"}, {"measurement": "serum cholesterol LS Mean Diff (placebo adjusted)", "setting": "Combined group, day 15", "value": -25.5, "unit": "mg/dL"}, {"measurement": "serum cholesterol LS Mean reduction from baseline", "setting": "Combined group, day 15", "value": -24.7, "unit": "mg/dL"}, {"measurement": "Apolipoprotein B Change LS Mean", "setting": "Overall 40 mg Total Daily Dose (N = 20), day 15", "value": -169.5, "unit": "µg/mL"}, {"measurement": "plasma fasting glucose LS Mean reduction from baseline", "setting": "QD/QD (40 mg QD days 1 to 14), day 15", "value": -29.6, "unit": "mg/dL"}, {"measurement": "Apolipoprotein B Change LS Mean", "setting": "QD/QD (N = 10), day 15", "value": -119.6, "unit": "µg/mL"}, {"measurement": "serum triglycerides LS Mean Diff (placebo adjusted)", "setting": "QD/QD", "value": -14.0, "unit": "mg/dL"}, {"measurement": "serum triglycerides LS Mean reduction from baseline", "setting": "QD/QD", "value": -46.0, "unit": "mg/dL"}, {"measurement": "LDL cholesterol Mean Diff (SE), placebo adjusted", "setting": "QD/QD, day 15", "value": "−19.9 (9.2) mg/dL"}, {"measurement": "LDL cholesterol Mean reduction from baseline (SE), least square", "setting": "QD/QD, day 15", "value": "−13.7 (5.6) mg/dL"}, {"measurement": "plasma fasting glucose LS Mean Diff (placebo adjusted)", "setting": "QD/QD, day 15", "value": -10.0, "unit": "mg/dL"}, {"measurement": "serum cholesterol LS Mean Diff (placebo adjusted)", "setting": "QD/QD, day 15", "value": -30.1, "unit": "mg/dL"}, {"measurement": "serum cholesterol LS Mean reduction from baseline", "setting": "QD/QD, day 15", "value": -29.3, "unit": "mg/dL"}, {"measurement": "serum LDL cholesterol reduced when compared to placebo", "setting": "QD/QD, day 15, after 14 days of treatment", "value": "about 20 mg/dL"}, {"measurement": "serum LDL cholesterol reduced when compared to placebo", "setting": "QD/QD, day 15, % of total cholesterol", "value": 13, "unit": "%"}, {"measurement": "Apolipoprotein B LS Mean Diff (placebo adjusted)", "setting": "QD/QD, day 15", "value": -69.1, "unit": "µg/mL"}, {"measurement": "fasting plasma insulin levels over placebo", "setting": "all of 26 patients, including those on insulin therapy", "value": "no meaningful improvements"}, {"measurement": "ADMA plasma concentration decrease from baseline", "setting": "combined Compound I group, 14 day study, baseline of 105 ng/ml", "value": 8.7, "unit": "ng/mL"}, {"measurement": "ADMA plasma concentration mean reduction adjusted to placebo", "setting": "combined group, after 14 days of treatment", "value": "about 11 ng/mL"}, {"measurement": "serum ALT change compared to baseline", "setting": "over 14 days", "value": "−4.9", "unit": "IU/L"}, {"measurement": "serum ALT reduction compared to baseline", "setting": "over 14 days", "value": 20, "unit": "%"}, {"measurement": "serum AST change compared to baseline", "setting": "over 14 days", "value": "−4.5", "unit": "IU/L"}, {"measurement": "serum AST reduction compared to baseline", "setting": "over 14 days", "value": 20, "unit": "%"}, {"measurement": "weight or BMI, adjusted to placebo", "setting": "over the 14 days of treatment", "value": "No meaningful changes"}, {"measurement": "fasting plasma insulin change adjusted to placebo", "setting": "patients not on insulin", "value": -13, "unit": "pmol/L"}, {"measurement": "reduction in HOMA-IR from baseline", "setting": "patients not taking concomitant insulin (12 on Compound I), 14 days", "value": 36, "unit": "%"}, {"measurement": "reduction in HOMA-IR adjusted to placebo", "setting": "patients not taking concomitant insulin, 14 days", "value": 23, "unit": "%"}, {"measurement": "apolipoprotein B decline, Compound I vs. PBO-treated patients", "setting": "post-hoc analysis, 14 days", "value": -119, "unit": "µg/mL"}, {"measurement": "LDL cholesterol decrease in treated vs. placebo patients", "setting": "[2]", "value": -16, "unit": "mg/dL"}, {"measurement": "total cholesterol decrease in treated vs. placebo patients", "setting": "[2]", "value": -17, "unit": "mg/dL"}, {"measurement": "mean decrease of plasma blood glucose relative to placebo", "setting": "subgroup using only oral antihyperglycemic agents without insulin, regimens combined, 14 days", "value": -19, "unit": "mg/dL"}]}
